Experiments:
[1] = target: serine/threonine kinases (STK) in colon carcinoma PDX lysates; experiment: PamChip serine/threonine kinase (STK) activity profiling of colon carcinoma PDX tumor lysates; parameters: species or system human PDX grown in mice; Kinase score: scale not given here; settings: for Kinase statistic: value<0 = higher activity in vehicle-treated tumors; for Kinase score: vehicle-treated vs KcAng(1-7)-treated tumors
Method: In particular, to determine the effect of treatment on kinase activities, Tyrosine (PTK) and Serine/Threonine (STK) PamChip®-based kinase activity profiling in lysates from colon carcinoma PDX was performed by PamGene International B.V., The Netherlands.
PamGene® kinase activity profiles were measured for vehicle-treated colon cancer PDX tumors (control, n=10) and KcAng(1-7)-treated colon cancer PDX tumors (treatment, n=10).
Frozen tissues of tumor samples were processed to make lysates followed by determination of tyrosine kinase and serine/threonine kinase activity profiles. Datasets were analyzed by PamGene bioinformatics toolbox, for example by using PamGene's method called Upstream Kinase Analysis.
Kinase Score was used for ranking kinases based on their significance and specificity in terms of the set of peptides used for the corresponding kinase. Kinase statistics indicates the overall change of the peptide set that represents the kinase. Kinase statistics value<0 indicates higher activity in vehicle-treated tumors.

[2] = system: MaCa4151 breast cancer PDX model; experiment: KcAng(1-7) on growth of breast carcinoma PDX MaCa4151 in mice; assay type: in vivo, NMRI nu/nu mice (human PDX)
Method: In vivo studies were conducted at EPO GmbH Berlin. Large studies (FIG. 1A, 2, 3, 4, 5) comprised 3 groups of 10 mice/group and 5 animals as reserve, as outlined in Table 1. Smaller studies (FIG. 1B, 1C, 1D) comprised 2 groups of mice of 3 mice per group. The animals were allocated to the various treatment groups (e.g. 0.2 μg/kg and 30 μg/kg) with a maximum of 10 animals per group. […] The groups received subcutaneous (s.c.) drug injection (for max. 28 days) as outlined in the Table 1.
NMRI nu/nu mice were used in this study. The animals were female at age of 6 to 8 weeks. The respective PDX tumors were inoculated subcutaneously (s.c.), and the tumors were grown to achieve palpable tumor sizes before start of the respective treatments. The PDX included breast (MaCa4151), colon (Co9689A), head & neck (HN10309), lung (Lu7433) and ovarian (OvCa13329) cancer (Table 2).
Treatment with KcAng(1-7) was started with palpable tumors after the randomization of animals regarding tumor volume. KcAng(1-7) was applied s.c. by daily injections at […] or 30 μg/kg dose for a maximum of 28 days (or earlier as defined by the humane end point for the study).
KcAng(1-7) was prepared as follows: The compounds was suspended in sterile PBS resulting in a clear solution. The remains of this formulation were stored at 4° C.
Tumor growth stimulatory or inhibitory activity of the KcAng(1-7) was evaluated by determination of tumor volumes (TV). During the study, tumor volumes and body weight were measured twice a week, and the ratio of the mean tumor volumes between the compound-treated group and the vehicle-treated group (T/C) was calculated.
Tumor volume=(tumor width)×(tumor width)×(tumor length)+2
T/C=T÷C • T: Mean estimated tumor volume of the compound-treated group • C: Mean estimated tumor volume of the vehicle-treated group

[3] = Gr. B 0.2 μg/kg/d s.c., Day 21 (Meas. 1)
[4] = Gr. B 0.2 μg/kg/d s.c., Day 23 (Meas. 2)
[5] = Gr. B 0.2 μg/kg/d s.c., Day 26 (Meas. 3)
[6] = Gr. B 0.2 μg/kg/d s.c., Day 29 (Meas. 4)
[7] = Gr. B 0.2 μg/kg/d s.c., Day 34 (Meas. 5)
[8] = Gr. B 0.2 μg/kg/d s.c., Day 37 (Meas. 6)
[9] = Gr. C 30 μg/kg/d s.c., Day 21 (Meas. 1)
[10] = Gr. C 30 μg/kg/d s.c., Day 23 (Meas. 2)
[11] = Gr. C 30 μg/kg/d s.c., Day 26 (Meas. 3)
[12] = Gr. C 30 μg/kg/d s.c., Day 29 (Meas. 4)
[13] = Gr. C 30 μg/kg/d s.c., Day 34 (Meas. 5)
[14] = Gr. C 30 μg/kg/d s.c., Day 37 (Meas. 6)

Lys-Asp-Arg-Val-Abu/Ala-Ile-His-Abu/Ala (KDRVAIHA; not fully specified; cyclic thioether (Abu/Ala bridge); VARIANT (5)..(5) /replace=“Abu”; VARIANT (8)..(8) /replace=“Abu”; SITE (1)..(8) /note=“Variant residues given in the sequence have no preference with respect to those in the annotations for variant positions”) [KcAng(1-7)]
Kinase statistic ([1]; kinase CDC2/CDK1): −0.80 | Kinase score ([1]; kinase CDC2/CDK1): 3.79 | Kinase statistic ([1]; kinase CDK2): −0.88 | Kinase score ([1]; kinase CDK2): 5.40 | Kinase statistic ([1]; kinase CDK4): −0.80 | Kinase score ([1]; kinase CDK4): 3.11 | Kinase statistic ([1]; kinase CDK5): −0.80 | Kinase score ([1]; kinase CDK5): 3.11 | Kinase statistic ([1]; kinase CDK6): −0.80 | Kinase score ([1]; kinase CDK6): 3.10 | Kinase statistic ([1]; kinase CDK9): −0.83 | Kinase score ([1]; kinase CDK9): 4.19 | Kinase statistic ([1]; kinase CDKL2): −0.98 | Kinase score ([1]; kinase CDKL2): 4.62 | Kinase statistic ([1]; kinase CDKL5): −0.82 | Kinase score ([1]; kinase CDKL5): 4.21 | Kinase statistic ([1]; kinase ERK1): −0.82 | Kinase score ([1]; kinase ERK1): 4.44 | Kinase statistic ([1]; kinase ERK2): −0.79 | Kinase score ([1]; kinase ERK2): 3.84 | Kinase statistic ([1]; kinase ERK5): −0.90 | Kinase score ([1]; kinase ERK5): 5.40 | Kinase statistic ([1]; kinase JNK1): −0.77 | Kinase score ([1]; kinase JNK1): 3.92 | Kinase statistic ([1]; kinase JNK2): −0.77 | Kinase score ([1]; kinase JNK2): 3.67 | Kinase statistic ([1]; kinase JNK3): −0.77 | Kinase score ([1]; kinase JNK3): 4.08 | Kinase statistic ([1]; kinase MAPK14): −0.79 | Kinase score ([1]; kinase MAPK14): 3.54 | Kinase statistic ([1]; kinase PCTAIRE2): −0.74 | Kinase score ([1]; kinase PCTAIRE2): 3.44 | Kinase statistic ([1]; kinase RAF1): −0.74 | Kinase score ([1]; kinase RAF1): 2.97 | Kinase statistic ([1]; kinase RSK3): −0.75 | Kinase score ([1]; kinase RSK3): 3.42 | Kinase statistic ([1]; kinase p38[beta]): −0.84 | Kinase score ([1]; kinase p38[beta]): 4.14 | Kinase statistic ([1]; kinase p38[gamma]): −0.82 | Kinase score ([1]; kinase p38[gamma]): 3.47 | effect on tumor growth ([2]; 0.2 and 30 μg/kg, 17 days): did not resulted in an increase of tumor growth or reduced tumor growth | RTV Mean [2, 3]: 1 | RTV Median [2, 3]: 1 | T/C [2, 3]: 95.7% | Tumor Vol. Mean [2, 3]: 0.163 cm^3 | Tumor Vol. Median [2, 3]: 0.131 cm^3 | RTV Mean [2, 4]: 1.7 | RTV Median [2, 4]: 1.6 | T/C [2, 4]: 105.2% | Tumor Vol. Mean [2, 4]: 0.281 cm^3 | Tumor Vol. Median [2, 4]: 0.241 cm^3 | RTV Mean [2, 5]: 2.4 | RTV Median [2, 5]: 2.2 | T/C [2, 5]: 118.4% | Tumor Vol. Mean [2, 5]: 0.392 cm^3 | Tumor Vol. Median [2, 5]: 0.368 cm^3 | RTV Mean [2, 6]: 3.4 | RTV Median [2, 6]: 3.2 | T/C [2, 6]: 104.9% | Tumor Vol. Mean [2, 6]: 0.55 cm^3 | Tumor Vol. Median [2, 6]: 0.491 cm^3 | RTV Mean [2, 7]: 6.2 | RTV Median [2, 7]: 5.2 | T/C [2, 7]: 120.2% | Tumor Vol. Mean [2, 7]: 0.995 cm^3 | Tumor Vol. Median [2, 7]: 1.021 cm^3 | RTV Mean [2, 8]: 10.5 | RTV Median [2, 8]: 7.6 | T/C [2, 8]: 137% | Tumor Vol. Mean [2, 8]: 1.607 cm^3 | Tumor Vol. Median [2, 8]: 1.452 cm^3 | RTV Mean [2, 9]: 1 | RTV Median [2, 9]: 1 | T/C [2, 9]: 94.8% | Tumor Vol. Mean [2, 9]: 0.162 cm^3 | Tumor Vol. Median [2, 9]: 0.157 cm^3 | RTV Mean [2, 10]: 1.5 | RTV Median [2, 10]: 1.5 | T/C [2, 10]: 92.6% | Tumor Vol. Mean [2, 10]: 0.248 cm^3 | Tumor Vol. Median [2, 10]: 0.165 cm^3 | RTV Mean [2, 11]: 2.4 | RTV Median [2, 11]: 2.5 | T/C [2, 11]: 122.3% | Tumor Vol. Mean [2, 11]: 0.405 cm^3 | Tumor Vol. Median [2, 11]: 0.383 cm^3 | RTV Mean [2, 12]: 4 | RTV Median [2, 12]: 4 | T/C [2, 12]: 125% | Tumor Vol. Mean [2, 12]: 0.655 cm^3 | Tumor Vol. Median [2, 12]: 0.671 cm^3 | RTV Mean [2, 13]: 6.8 | RTV Median [2, 13]: 6.5 | T/C [2, 13]: 130.6% | Tumor Vol. Mean [2, 13]: 1.081 cm^3 | Tumor Vol. Median [2, 13]: 1.072 cm^3 | RTV Mean [2, 14]: 9.8 | RTV Median [2, 14]: 9.1 | T/C [2, 14]: 131.2% | Tumor Vol. Mean [2, 14]: 1.539 cm^3 | Tumor Vol. Median [2, 14]: 1.522 cm^3
